Measured values as given in patent US20110104186A1, “Small molecule immunopotentiators and assays for their detection” (priority 2004, published 2011).
pIC50: −log10 of the molar value.

test system: TNF-α production; test: In vitro inhibition of TNF-α production by 1H-imidazoquinolines; format: cell-based

pIC50	Molecule
5.10	1-[2-(methyloxy)phenyl]-4-{[3,4,5-tris(methyloxy)phenyl]carbonyl} piperazine [Example 16]
5.44	1-[(3-fluorophenyl)carbonyl]-4-{[4-(trifluoromethyl)phenyl] methyl}piperazine [Example 12]
< 5.00	3-pentyl-7-[(4-phenylpiperazin-1-yl)carbonyl]-2-thioxo-2,3-dihydroquinazolin-4(1H)-one [Example 18]
5.86	CCOc1ccccc1C(=O)N1CCN(c2cccc(Cl)c2)CC1 [Example 14, 1-(3-chlorophenyl)-4-{[2-(ethyloxy)phenyl]carbonyl}-piperazine]
< 5.00	COc1cccc(C(=O)N2CCc3cc(OC)c(OC)cc3C2C)c1 (stereo not drawn) [Example 22]

Molecule	pIC50
3-({4-[(2E)-3-phenylprop-2-enyl]piperazin-1-yl}carbonyl)-7-oxabicyclo[2.2.1]heptane-2-carboxylic acid [Example 15]	5.43
3-[(4-pyridin-2-ylpiperazin-1-yl)carbonyl]-7-oxabicyclo[2.2.1]heptane-2-carboxylic acid [Example 17]	5.57
4-({2-[(4-chlorophenyl)amino]-1-methyl-1H-benzimidazol-5-yl}oxy)-N-1,3-thiazol-2-ylpyridine-2-carboxamide [Example 9]	6.69
CNC(=O)c1cc(Oc2ccc3[nH]c(Nc4ccccc4C(C)C)nc3c2)ccn1 [Example 2, N-methyl-4-[(2-{[2-(1-methylethyl)phenyl]amino}-1H-benzimidazol-5-yl)oxy]pyridine-2-carboxamide]	5.32
